Where “and” joins values, the source holds several entries; their conditions need not be identical. Equal entries are not always repeated.
Assays:
[1] = system: HeLa; conditions: bulk resorufin, single well, 28.5 h, 10 µM, Bulk resorufin fluorescence
[2] = system: T1, CTL2-GFP (C. trachomatis L2/434/Bu, GFP-expressing); experiment: microbe, parasite or virus in culture; set-up: Intracellular C. trachomatis growth in HeLa cells, bulk GFP fluorescence relative to DMSO; conditions: Chlamydia trachomatis, HeLa, 28.5 h; bulk GFP, mean of 2; read-out: % of control remaining
T1 construct: L2/434/Bu, GFP-expressing
Description: MICs were calculated as described above.

[3] = in vitro; set-up: Viability of infected HeLa host cells, resazurin conversion, bulk resorufin fluorescence relative to DMSO; conditions: human, hela cells; bulk resorufin, mean of 2
[4] = system: T2, C. trachomatis L2/434/Bu expressing GFP (CTL2-GFP); experiment: microbe, parasite or virus in culture; set-up: C. trachomatis total inclusion area by high-content imaging, normalised to DMSO; conditions: Chlamydia trachomatis, HeLa, 28.5 h; total inclusion area; read-out: % of control remaining
T2 construct: L2/434/Bu GFP intracellular growth in HeLa cells
Method in brief: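 GFP/resorufin bulk fluorescence read → fix → Hoechst stain → high-content imaging. Inclusion total area + count = growth proxy; nuclei count = host viability proxy. MIC calc per earlier method.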

[5] = in vitro; conditions: human, hela cells, % viability

SMILES | % viability [1] | activity at 1 µM [2] [%] | activity at 5 µM [2] [%] | activity at 10 µM [2] [%] | viability at 28.5 h, 1 µM [3] [%] | viability at 28.5 h, 5 µM [3] [%] | viability at 28.5 h, 10 µM [3] [%] | activity at 1 µM [4] [%] | activity at 5 µM [4] [%] | activity at 10 µM [4] [%] | viability at 28.5 h, 10 µM [5] [%]
CCN(CC)c1ccc2cc(/C(C)=N/O)c(=O)oc2c1 [CBK009063] | 108% and 84.7% |  |  |  |  |  |  |  |  |  | 
Cc1cn(C2CC(O)C(CO)O2)c(=S)[nH]c1=O (stereo not drawn) [CBK012339] | 112% and 90.8% |  |  |  |  |  |  |  |  |  | 
O=C(Nc1nc[nH]n1)NC1CCCCC1 [CBK017342] | 119% and 94.5% |  |  |  |  |  |  |  |  |  | 
CCCO/N=C\c1ccc(-n2cnnc2)cc1 [CBK018921] | 77.5% and 99.8% |  |  |  |  |  |  |  |  |  | 
CC1=CC(C)C(C(=O)O)C(C(=O)N2CCN(C)CC2)C1 (stereo not drawn) [CBK027311] | 102% |  |  |  |  |  |  |  |  |  | 
COc1ccc2[nH]cc(CCNC(=O)c3ccc([N+](=O)[O-])c(C)c3)c2c1 [CBK269426] |  | 149 | 100 | 62.1 | 85.4 | 90.5 | 84.5 | 140 | 55.8 | 21.5 | 100
O=S(=O)(Nc1nccs1)c1ccc(Nc2ncnc3ccccc23)cc1 [CBK269487C] |  | 141 | 72.9 | 35 | 93.3 | 99 | 86.3 | 140 | 53.6 | 28.6 | 93.8
O=C(Nc1nccs1)c1cc(C2CCN(C(=O)CC3CCCCC3)C2)nc2ccccc12 (stereo not drawn) [CBK285586] |  | 134 | 122 | 35.7 | 92.6 | 93 | 93.3 | 115 | 119 | 48.9 | 116
COc1cccc(C(=O)N2CCC(Cc3ccc(-c4cccc(C)c4)cc3)(C(N)=O)CC2)c1 [CBK285779] |  | 119 | 104 | 49.9 | 96.4 | 98.8 | 90.2 | 113 | 114 | 62.9 | 115
Cc1cc2cc(C(=O)N3CCC(c4c(C(=O)NC(C)C)sc5ccccc45)C3)ccc2o1 (stereo not drawn) [CBK285873] |  | 148 | 48.7 | 31.6 | 90 | 97.6 | 96.2 | 150 | 85.1 | 51.5 | 87.1
O=C(c1ccc(-c2ccc(F)cc2)o1)N1C[C@H]2CC[C@](O)(c3ccc(F)cc3)[C@H]2C1 [CBK286415] |  | 6.79 | 7.93 | 15.1 | 91.9 | 86.5 | 91.6 | 0.419 | 0.168 | 0.106 | 94.1
Cc1ccc(N2C(=O)c3[nH]nc(C)c3C2c2ccc(O)cc2)cc1 (stereo not drawn) [CBK287915] |  | 108 | 89.5 | 54.1 | 98 | 107 | 106 | 111 | 93.4 | 54.6 | 94.7
Cc1c(C(=O)Nc2ccc(Cl)cc2)sc2c1C(c1cccnc1)CC(=O)N2 (stereo not drawn) [CBK288233] |  | 99.5 | 55.5 | 83.6 | 101 | 98.8 | 97.1 | 100 | 56.2 | 44.9 | 87.1
Cc1cccc(Nc2nc(C)cc3n[nH]c(=O)n23)c1 [CBK288477] |  | 134 | 57.5 | 29.6 | 102 | 104 | 81.5 | 74.4 | 33.7 | 17.7 | 89.2
COc1ccc(C=CC(=O)Nc2sc3c(c2C(=O)O)CCCC3)cc1OC [CBK296103] |  | 118 | 85.9 | 27.4 | 91.1 | 87.4 | 89.7 | 117 | 69.8 | 22.5 | 117
CCCn1c(NC(=O)C(C)Oc2ccc(Cl)cc2Cl)nc2ccccc21 (stereo not drawn) [CBK296979] |  | 129 | 103 | 54.1 | 88 | 93.1 | 89.7 | 137 | 94.8 | 58.2 | 108
O=C(O)c1cn(C2CC2)c2cc(N3CCN(C(=O)Cc4ccsc4)CC3)c(F)cc2c1=O [CBK297142] |  | 137 | 28.4 | 17.7 | 90.6 | 93 | 90.7 | 114 | 17.9 | 12.9 | 88.9
Cc1cc(NS(=O)(=O)c2ccc(NC(=O)CCCOc3ccc(Cl)cc3Cl)cc2)no1 [CBK297145] |  | 128 | 62.6 | 39.3 | 85.1 | 93.5 | 89.4 | 125 | 84.3 | 56.5 | 103
CCN1CCN(c2cc3c(cc2F)c(=O)c(C(=O)NCCOC)cn3C2CC2)CC1 [CBK300529] |  | 36.3 | 5.5 | 6.24 | 88.9 | 93 | 88.7 | 24.3 | 3.14 | 0.623 | 94.2
CC(Cc1nc(-c2nccn2C)cs1)n1cc(Cl)cn1 (stereo not drawn) [CBK304114] |  | 79.3 | 21 | 7.42 | 108 | 100 | 105 | 97.2 | 15.4 | 7.1 | 90.1
OCCn1ncc2c(NCc3cccc(Cn4ccnc4)c3)ncnc21 [CBK304184] |  | 144 | 158 | 128 | 96.1 | 92 | 92.4 | 81 | 101 | 58.7 | 90.3
Fc1cc(Br)c(CNCc2ncc[nH]2)c(N2CCCCC2)c1F [CBK304243] |  | 128 | 39.3 | 16.8 | 96.3 | 88.7 | 89.7 | 105 | 30.4 | 7.47 | 99.2
COc1cc(OC)c(CCNC2CCCc3c2cnn3C)c(OC)c1 (stereo not drawn) [CBK304482] |  | 147 | 156 | 135 | 97.4 | 91.3 | 93.8 | 102 | 131 | 56.7 | 111
CN1CCOC(CNc2nc(-c3ccncc3)nc3c2CCC3)C1 (stereo not drawn) [CBK304890] |  | 141 | 112 | 126 | 90.5 | 92.8 | 99.5 | 46.1 | 45.8 | 25.1 | 87
CCCc1cc(C(=O)N2CCN(c3nccc(OC)n3)CC2)[nH]n1 [CBK304898] |  | 148 | 151 | 156 | 89.4 | 93.7 | 89.2 | 127 | 120 | 43.6 | 87
CC1CC(C)CN(Cc2csc(NC(=O)Cc3ccc(Cl)cc3)n2)C1 (stereo not drawn) [CBK306142] |  | 150 | 112 | 75.2 | 87.7 | 91.3 | 86 | 140 | 48.4 | 46.1 | 81.1
OCC1(CNc2ncc(F)c(N3CCCC3)n2)CCOCC1 [CBK306647] |  | 108 | 64.2 | 59 | 100 | 93.8 | 95.5 | 130 | 60.9 | 47.1 | 87.3

Reference: publication PMC12040169 (PLOS Biology, 2025)
